Data taken from PubChem BioAssay (NCI).
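Protocol summary: plate cells (96-well), add compound at 5 concentrations, incubate 48 h, interpolate endpoints linearly. At the GI50, growth is halved. At the TGI there is no net growth.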

Key:
Assay in all cases: inhibition of tumour cell growth, NCI panel, 48 h
HOP-62 NSCLC = test system: HOP-62 NSCLC
HCT-15 colon = test system: HCT-15 colon
MCF7 breast = test system: MCF7 breast
CCRF-CEM leukemia = test system: CCRF-CEM leukemia
UO-31 renal = test system: UO-31 renal
TK-10 renal = test system: TK-10 renal
NCI/ADR-RES ovarian = test system: NCI/ADR-RES ovarian
LOX IMVI melanoma = test system: LOX IMVI melanoma
CAKI-1 renal = test system: CAKI-1 renal
OVCAR-8 ovarian = test system: OVCAR-8 ovarian
NCI-H460 lung = test system: NCI-H460 lung
SK-OV-3 ovarian = test system: SK-OV-3 ovarian
HL-60(TB) leukemia = test system: HL-60(TB) leukemia
IGROV1 ovarian = test system: IGROV1 ovarian
BT-549 breast = test system: BT-549 breast
T-47D breast = test system: T-47D breast
SNB-19 CNS = test system: SNB-19 CNS
ACHN renal = test system: ACHN renal
SW-620 colon = test system: SW-620 colon
OVCAR-3 ovarian = test system: OVCAR-3 ovarian
MOLT-4 leukemia = test system: MOLT-4 leukemia
UACC-257 melanoma = test system: UACC-257 melanoma
EKVX NSCLC = test system: EKVX NSCLC
KM12 colon = test system: KM12 colon
OVCAR-5 ovarian = test system: OVCAR-5 ovarian
SNB-75 CNS = test system: SNB-75 CNS
RPMI-8226 leukemia = test system: RPMI-8226 leukemia
MDA-MB-231 breast = test system: MDA-MB-231 breast
SK-MEL-5 melanoma = test system: SK-MEL-5 melanoma
HS 578T breast = test system: HS 578T breast
K-562 leukemia = test system: K-562 leukemia
RXF 393 renal = test system: RXF 393 renal
HCC-2998 colon = test system: HCC-2998 colon
SR leukemia = test system: SR leukemia
SF-295 CNS = test system: SF-295 CNS
SK-MEL-28 melanoma = test system: SK-MEL-28 melanoma
SN12C renal = test system: SN12C renal
SF-268 CNS = test system: SF-268 CNS
A498 renal = test system: A498 renal
DU-145 prostate = test system: DU-145 prostate
NCI-H226 lung = test system: NCI-H226 lung
SK-MEL-2 melanoma = test system: SK-MEL-2 melanoma
786-0 renal = test system: 786-0 renal
SF-539 CNS = test system: SF-539 CNS
PC-3 prostate = test system: PC-3 prostate
UACC-62 melanoma = test system: UACC-62 melanoma
HOP-92 NSCLC = test system: HOP-92 NSCLC
MDA-MB-435 = test system: MDA-MB-435

## Clc1ccc2oc3c(NCCCN4CCOCC4)c4ccccc4nc3c2c1
HOP-62 NSCLC
  GI50: 1.72 µM
  TGI: 4.65 µM
HCT-15 colon
  GI50: 1.53 µM
  TGI: 5.33 µM
MCF7 breast
  GI50: 1.17 µM
  TGI: 3.16 µM
CCRF-CEM leukemia
  GI50: 0.117 µM
  TGI: 5.48 µM
UO-31 renal
  GI50: 1.34 µM
  TGI: 3.68 µM
TK-10 renal
  GI50: 4.61 µM
  TGI: 20.7 µM
NCI/ADR-RES ovarian
  GI50: 1.01 µM
  TGI: 5.55 µM
LOX IMVI melanoma
  GI50: 1.27 µM
  TGI: 2.77 µM
CAKI-1 renal
  GI50: 1.4 µM
  TGI: 3.21 µM
OVCAR-8 ovarian
  GI50: 1.82 µM
  TGI: 5.1 µM
NCI-H460 lung
  GI50: 1.18 µM
  TGI: 3.38 µM
SK-OV-3 ovarian
  GI50: 3.23 µM
  TGI: 17.1 µM
HL-60(TB) leukemia
  GI50: 0.295 µM
  TGI: 1.21 µM
IGROV1 ovarian
  GI50: 2.79 µM
  TGI: 22.2 µM
BT-549 breast
  GI50: 2.37 µM
  TGI: 5.51 µM
T-47D breast
  GI50: 3.06 µM
  TGI: 18.9 µM
SNB-19 CNS
  GI50: 3.48 µM
  TGI: 20 µM
ACHN renal
  GI50: 0.88 µM
  TGI: 2.59 µM
SW-620 colon
  GI50: 0.839 µM
  TGI: 3.21 µM
OVCAR-3 ovarian
  GI50: 3.29 µM
  TGI: 34.7 µM
MOLT-4 leukemia
  GI50: 0.534 µM
  TGI: 12.7 µM
UACC-257 melanoma
  GI50: 1.78 µM
  TGI: 3.5 µM
EKVX NSCLC
  GI50: 2.89 µM
  TGI: 10.1 µM
KM12 colon
  GI50: 2.49 µM
  TGI: > 100 µM
OVCAR-5 ovarian
  GI50: 1.83 µM
  TGI: 5.28 µM
SNB-75 CNS
  GI50: 1.77 µM
  TGI: 5.88 µM
RPMI-8226 leukemia
  GI50: 2.12 µM
  TGI: 5.05 µM
MDA-MB-231 breast
  GI50: 2.27 µM
  TGI: 8.43 µM
SK-MEL-5 melanoma
  GI50: 4.15 µM
  TGI: 15.7 µM
HS 578T breast
  GI50: 3.43 µM
  TGI: 22.6 µM
K-562 leukemia
  GI50: 1.56 µM
  TGI: 10.2 µM
RXF 393 renal
  GI50: 1.41 µM
  TGI: 2.8 µM
HCC-2998 colon
  GI50: 1.36 µM
  TGI: 3.11 µM
SR leukemia
  GI50: 1.69 µM
  TGI: 8.9 µM
SF-295 CNS
  GI50: 2.76 µM
  TGI: 11.3 µM
SK-MEL-28 melanoma
  GI50: 1.72 µM
  TGI: 3.16 µM
SN12C renal
  GI50: 1.6 µM
  TGI: 6.36 µM
SF-268 CNS
  GI50: 2.32 µM
  TGI: > 100 µM
A498 renal
  GI50: 4.06 µM
  TGI: 17 µM
DU-145 prostate
  GI50: 2.76 µM
  TGI: 11.5 µM
NCI-H226 lung
  GI50: 2.2 µM
  TGI: 6.2 µM
SK-MEL-2 melanoma
  GI50: 3 µM
  TGI: 8.79 µM
786-0 renal
  GI50: 1.61 µM
  TGI: 4.45 µM
SF-539 CNS
  GI50: 1.56 µM
  TGI: 2.92 µM
PC-3 prostate
  GI50: 1.78 µM
  TGI: 3.99 µM
UACC-62 melanoma
  GI50: 2.17 µM
  TGI: 5.07 µM
HOP-92 NSCLC
  GI50: 1.32 µM
  TGI: 5.64 µM
MDA-MB-435
  GI50: 1.66 µM
  TGI: 3.35 µM
